Key:
[1] = target: T1, PRMT5 (Homo sapiens, UniProt O14744); experiment: PRMT5 biochemical IC50 assay with SAM as cofactor; conditions: PRMT5, SAM as cofactor; read-out: SAM IC50
T1 construct: purchased Viva (custom protein)

[2] = target: T1, PRMT5; experiment: PRMT5 biochemical IC50 assay with no cofactor; conditions: PRMT5, no cofactor
Source text: Table 1 indicates IC50 values (μM) against PRMT5 for exemplary compounds in the presence of SAM as cofactor, with no cofactor, and with MTA as cofactor, respectively (columns 4-6). […] Ki values can be calculated from the IC50 values as described in the Examples section. As detailed in the Examples section, for the assay performed in the presence of SAM, IC50=Ki×1.5 (Ki=IC50/1.5).

[3] = target: T1, PRMT5; experiment: PRMT5 biochemical IC50 assay with MTA as cofactor; conditions: PRMT5, MTA as cofactor; read-out: MTA IC50
[4] = system: HAP1 MTAP-intact cell line; experiment: SDMA in-cell western assay, HAP1 MTAP-intact; format: cell-based; conditions: Homo sapiens, HAP1, SDMA in-cell western, HAP1 MTAP-intact; read-out: MTAP HAP1 intact IC50
How it was run: (§1)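 MTAP-null vs endogenous-MTAP HAP1 isogenic cells; in-cell western SDMA readout; IC50 per line.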

[5] = system: HAP1 MTAP-deleted cell line; experiment: SDMA in-cell western assay, HAP1 MTAP-deleted; format: cell-based; conditions: for IC50: Homo sapiens, HAP1, SDMA in-cell western, HAP1 MTAP-deleted; for MTAP intact/deleted ratio: IC50 ratio HAP1 MTAP-intact / HAP1 MTAP-deleted, SDMA in-cell western
How it was run: as §1

[6] = system: HAP1 MTAP-deleted cell line; experiment: Viability assay, MTAP-deleted cell line; format: cell-based; conditions: Homo sapiens, read-out: HAP1 MTAP deleted viability
Source text: Table 1 additionally indicates IC50 values in a viability assay for the MTAP-deleted cell line (column 10), indicating the effect of treatment with compound on cell survival.

[7] = read-out: HAP1 MTAP deleted IC50
[8] = HAP1, viability assay, MTAP-deleted cell line
[9] = read-out: No Cofactor/ rel IC50
[10] = read-out: HAP 1 MTAP deleted IC50
[11] = HAP1, viability, HAP1 MTAP-deleted cell line
[12] = HAP1, viability assay, HAP1 MTAP-deleted

T1 sequence (O14744 whole entry): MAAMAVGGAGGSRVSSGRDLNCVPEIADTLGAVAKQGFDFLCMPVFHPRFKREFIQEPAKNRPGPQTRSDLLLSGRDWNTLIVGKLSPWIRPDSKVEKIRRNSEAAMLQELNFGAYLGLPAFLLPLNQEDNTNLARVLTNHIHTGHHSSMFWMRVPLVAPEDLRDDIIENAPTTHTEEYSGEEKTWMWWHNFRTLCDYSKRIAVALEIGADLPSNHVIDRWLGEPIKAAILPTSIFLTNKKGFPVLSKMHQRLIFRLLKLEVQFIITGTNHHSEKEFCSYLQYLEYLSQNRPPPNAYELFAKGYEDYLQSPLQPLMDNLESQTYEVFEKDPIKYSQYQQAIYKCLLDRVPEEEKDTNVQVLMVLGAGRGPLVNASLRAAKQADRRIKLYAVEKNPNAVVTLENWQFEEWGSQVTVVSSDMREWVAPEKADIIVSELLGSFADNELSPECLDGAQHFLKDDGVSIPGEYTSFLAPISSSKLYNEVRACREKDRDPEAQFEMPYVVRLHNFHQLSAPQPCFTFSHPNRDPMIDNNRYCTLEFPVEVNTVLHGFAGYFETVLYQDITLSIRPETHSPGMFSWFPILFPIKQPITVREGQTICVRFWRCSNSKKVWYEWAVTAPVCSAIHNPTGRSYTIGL
T1 sequence (Q9BQA1 whole entry partner): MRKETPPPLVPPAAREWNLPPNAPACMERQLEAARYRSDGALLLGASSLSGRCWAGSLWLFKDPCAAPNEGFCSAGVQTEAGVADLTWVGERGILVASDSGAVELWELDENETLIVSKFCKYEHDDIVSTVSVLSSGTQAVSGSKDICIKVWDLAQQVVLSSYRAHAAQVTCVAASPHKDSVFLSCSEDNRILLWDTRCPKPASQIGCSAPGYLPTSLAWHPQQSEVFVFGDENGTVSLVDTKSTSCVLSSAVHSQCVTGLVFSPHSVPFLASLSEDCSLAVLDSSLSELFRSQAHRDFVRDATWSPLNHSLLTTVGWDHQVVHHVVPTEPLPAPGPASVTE

Row | Compound | IC50 [1] | IC50 ([2]; read-out: No Cofactor/rel IC50) | IC50 [3] | IC50 [4] | IC50 [5, 7] | IC50 [2, 9] | IC50 [5, 10] | MTAP intact/deleted ratio [5] | IC50 [6, 8] | IC50 [6, 11] | IC50 [6, 12]
1 | Cc1cc(NC(=O)C(=O)N2C[C@H](C)CC[C@H]2c2ccc3c(c2)CCCN3)cnc1N (single isomer, unassigned) [Compound 504] | 50 to 500 nM | < 50 nM | < 50 nM | 100 to 1000 nM | < 100 nM |  |  | A (an IC50 ratio greater than or equal to 10 fold) | < 1000 nM |  | 
2 | CCc1cc(NC(=O)C(=O)N2C[C@@H](C)CC[C@@H]2c2ccc3sc([C@@H]4CCN(C)C(=O)C4)nc3c2)cnc1N [Compound 1256, N-(6-amino-5-ethyl-3-pyridyl)-2-[(2R,5S)-5-methyl-2-[2-(1-methyl-2-oxo-4-piperidyl)-1,3-benzothiazol-5-yl]-1-piperidyl]-2-oxo-acetamide] | 50 to 500 nM |  | < 50 nM | < 100 nM |  | < 50 nM | < 100 nM | A (an IC50 ratio greater than or equal to 10 fold) |  | < 1000 nM | 
3 | C[C@H]1CC[C@H](c2ccc3sc(CCN4CCCC4)nc3c2)N(C(=O)C(=O)Nc2cnc(N)c(C3COC3)c2)C1 [Compound 1379, N-(6-amino-5-(oxetan-3-yl)pyridin-3-yl)-2-((2R,5S)-5-methyl-2-(2-(2-(pyrrolidin-1-yl)ethyl)benzo[d]thiazol-5-yl)piperidin-1-yl)-2-oxoacetamide] | 50 to 500 nM |  | < 50 nM | < 100 nM |  | 50 to 500 nM | < 100 nM | A (an IC50 ratio greater than or equal to 10 fold) |  | < 1000 nM | 
4 | Cc1cc(NC(=O)C(=O)N2C[C@H](C)CC[C@H]2c2ccc3ncsc3c2)cnc1N (racemic) [Compound 716, N-(6-amino-5-methyl-3-pyridyl)-2-[(2S,5R)-2-(1,3-benzothiazol-6-yl)-5-methyl-1-piperidyl]-2-oxo-acetamide] | 50 to 500 nM | 50 to 500 nM | < 50 nM | > 1000 nM | < 100 nM |  |  | A (an IC50 ratio greater than or equal to 10 fold) |  |  | < 1000 nM
5 | C[C@@H]1CC[C@@H](c2ccc3[nH]ncc3c2)N(C(=O)C(=O)Nc2cnc(N)c(C3CC3)c2)C1 (single isomer, unassigned) [Compound 1361] | > 500 nM |  | > 500 nM | > 1000 nM |  | > 500 nM | > 1000 nM |  |  | > 10000 nM | 

Further lines, with some results ahead:

Row | IC50 [1] | IC50 ([2]; read-out: No Cofactor/rel IC50) | IC50 [3] | IC50 [4] | IC50 [5, 7] | IC50 [2, 9] | IC50 [5, 10] | Compound | MTAP intact/deleted ratio [5] | IC50 [6, 8] | IC50 [6, 11] | IC50 [6, 12]
6 | 50 to 500 nM | 50 to 500 nM | < 50 nM | > 1000 nM | 100 to 1000 nM |  |  | C[C@H]1CC[C@H]([C@H]2CC[C@H](O)CC2)N(C(=O)C(=O)Nc2cncc(C(N)=O)c2)C1 (single isomer, unassigned) [Compound 394] | A (an IC50 ratio greater than or equal to 10 fold) | 1000 to 10000 nM |  | 
7 | 50 to 500 nM |  | < 50 nM | 100 to 1000 nM |  | < 50 nM | < 100 nM | CCc1cc(NC(=O)C(=O)N2C[C@@H](C)CC[C@@H]2c2ccc(N3CC[C@@H]4CN(C)C[C@@H]4C3)cc2)cnc1N (relative stereo) [Compound 1349] | A (an IC50 ratio greater than or equal to 10 fold) |  | < 1000 nM | 
8 | 50 to 500 nM | < 50 nM | < 50 nM | > 1000 nM | < 100 nM |  |  | CNC(=O)c1ccc([C@@H]2CC[C@@H](C)CN2C(=O)C(=O)Nc2cncc(C(N)=O)c2)s1 (single isomer, unassigned) [Compound 829] | A (an IC50 ratio greater than or equal to 10 fold) |  |  | 1000 to 10000 nM
9 | 50 to 500 nM |  | < 50 nM | > 1000 nM |  | 50 to 500 nM | 100 to 1000 nM | CC1(C)CCCC2CN(C(=O)C(=O)Nc3cncc(C(N)=O)c3)CCC21 (racemic) [Compound 141, 5-[2-(5,5-Dimethyl-decahydroisoquinolin-2-yl)-2-oxoacetamido]pyridine-3-carboxamide] | A (an IC50 ratio greater than or equal to 10 fold) | > 10000 nM |  | 

Source: patent US11999727B2 (Tango Therapeutics, Inc., priority 2020, dated 2024)
